Test results reported in ChEMBL document CHEMBL5376012, “Consensus screening for a challenging target: the quest for P-glycoprotein inhibitors” (RSC Med Chem, 2024).
Activity calls are given as the source filed them. No cut-off for these calls is given here.

How the values were obtained:
[1] = target: ATP-dependent translocase ABCB1 (Homo sapiens, UniProt P08183); assay: Inhibition of human recombinant P-gp ATPase activity in isolated membranes incubated in presence of verapamil by firefly luciferase based luminescence analysis; type: cell membranes
[2] = test system: Caco-2; assay: Cytotoxicity against colchicine and vincristine stimulated human Caco-2 cells assessed as reduction in cell viability at 10 uM preincubated for 30 mins followed by colchicine and vincristine addition for 24 hrs by CCK-8 assay; type: functional, cell-based; settings: time 24.5 hrs
[3] = test system: Caco-2; assay: Cytotoxicity against colchicine and vincristine stimulated human Caco-2 cells assessed as reduction in cell viability at 10 uM preincubated for 30 mins followed by colchicine and vincristine addition for 24 hrs by CCK-8 assay relative to control; type: functional; settings: time 24.5 hrs

ATP-dependent translocase ABCB1, sequence (P08183 whole entry): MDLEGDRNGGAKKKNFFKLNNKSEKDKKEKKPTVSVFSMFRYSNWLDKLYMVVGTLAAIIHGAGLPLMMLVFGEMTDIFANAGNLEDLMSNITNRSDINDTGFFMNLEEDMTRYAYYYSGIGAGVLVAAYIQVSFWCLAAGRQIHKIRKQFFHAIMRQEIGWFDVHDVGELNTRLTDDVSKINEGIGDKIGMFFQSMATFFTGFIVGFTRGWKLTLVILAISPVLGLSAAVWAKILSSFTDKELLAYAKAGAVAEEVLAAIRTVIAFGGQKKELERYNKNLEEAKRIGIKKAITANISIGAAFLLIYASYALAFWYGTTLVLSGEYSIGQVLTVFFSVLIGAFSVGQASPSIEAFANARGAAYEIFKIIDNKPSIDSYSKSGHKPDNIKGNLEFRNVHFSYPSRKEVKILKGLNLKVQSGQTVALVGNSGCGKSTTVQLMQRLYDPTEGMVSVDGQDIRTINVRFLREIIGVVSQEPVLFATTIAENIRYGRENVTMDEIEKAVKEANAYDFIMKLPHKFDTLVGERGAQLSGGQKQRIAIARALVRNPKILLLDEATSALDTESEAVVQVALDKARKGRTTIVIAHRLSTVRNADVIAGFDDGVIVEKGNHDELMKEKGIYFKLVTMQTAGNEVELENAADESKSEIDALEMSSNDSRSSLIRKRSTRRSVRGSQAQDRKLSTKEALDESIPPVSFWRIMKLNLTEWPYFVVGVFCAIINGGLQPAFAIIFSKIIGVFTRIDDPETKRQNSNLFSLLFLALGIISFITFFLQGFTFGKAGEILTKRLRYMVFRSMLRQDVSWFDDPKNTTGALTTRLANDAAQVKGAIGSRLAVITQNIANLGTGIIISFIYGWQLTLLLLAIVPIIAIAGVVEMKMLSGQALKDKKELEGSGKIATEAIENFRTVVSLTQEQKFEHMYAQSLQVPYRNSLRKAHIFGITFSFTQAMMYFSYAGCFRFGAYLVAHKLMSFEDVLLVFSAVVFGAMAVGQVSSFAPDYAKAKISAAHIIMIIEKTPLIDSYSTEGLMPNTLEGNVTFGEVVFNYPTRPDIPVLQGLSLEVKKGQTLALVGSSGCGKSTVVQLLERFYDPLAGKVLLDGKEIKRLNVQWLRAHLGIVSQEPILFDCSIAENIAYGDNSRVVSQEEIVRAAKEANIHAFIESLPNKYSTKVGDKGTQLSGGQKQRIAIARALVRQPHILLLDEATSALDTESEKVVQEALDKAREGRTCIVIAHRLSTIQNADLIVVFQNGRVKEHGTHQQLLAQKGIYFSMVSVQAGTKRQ

Row | IC50 [1] [µM] | Compound | Activity [2] | Activity [3] [%]
1 | 7.9 | COC(=O)[C@@H](Cc1cccc([N+](=O)[O-])c1O)NC(=O)CCC(=O)OCC(=O)[C@@]1(O)CC[C@@H]2[C@@H]3CCC4=CC(=O)CC[C@]4(C)[C@@H]3CC[C@@]21C | – | –
2 | > 50 | CC(C)C[C@H](NC(=O)[C@H]1CCCN1C(=O)[C@@H](C)NC(=O)COc1cc(O)c2c(=O)c(-c3ccc4c(c3)OCCO4)coc2c1)C(=O)CC(N)=O | inactive | –
3 | 4.8 | COc1ccc(-c2coc3c4c(cc(O)c3c2=O)OC(=O)C[C@H]4c2ccc(OCc3nccn3C)c(OC)c2)cc1OC | – | 30
4 | > 50 | CCOC(=O)c1cccc(NC(=O)O[C@@H]2CO[C@H]3[C@@H]2OC[C@@H]3NS(=O)(=O)c2cc(OC)ccc2OC)c1 | inactive | –
5 | > 50 | CC(C)(C)OC(=O)N[C@H](Cc1ccc(OC(=O)OC(C)(C)C)cc1)C(=O)NCCCC(=O)Oc1ccc2c(=O)c(Oc3ccccc3F)coc2c1 | – | –
6 | 2.4 | COc1cc(CCNC(=O)C[C@@H](C2=C(O)[C@@]3(Oc4c(Cl)c(OC)cc(OC)c4C3=O)[C@H](C)CC2=O)c2ccc(SC)cc2)c([N+](=O)[O-])cc1OC | – | 30
7 | 3.31 | COc1cc([C@@H](CC(=O)NCCCN2CCOCC2)C2=C(O)[C@@]3(Oc4c(Cl)c(OC)cc(OC)c4C3=O)[C@H](C)CC2=O)ccc1O | – | 30

The remaining lines, values behind:

Row | Compound | IC50 [1] [µM] | Activity [2] | Activity [3] [%]
8 | CC(=O)c1c(O)c(C)c(O)c2c1OC1=CC(=O)/C(=C(/C)Nc3cc(-c4nnn(CC(=O)O)n4)ccc3O)C(=O)[C@@]12C | 3.17 | – | 30
9 | COc1cc([C@@H](CC(=O)NCCC(=O)Nc2ccccn2)C2=C(O)[C@@]3(Oc4c(Cl)c(OC)cc(OC)c4C3=O)[C@H](C)CC2=O)ccc1O | 1.28 | – | 30
10 | O=C(O)[C@H]1O[C@@H](Oc2cc3oc(-c4ccc(O)cc4)cc(=O)c3c(O)c2O)[C@H](O)[C@@H](O)[C@@H]1O [SCUTELLARIN] | 19.7 | – | –
11 | COC(=O)C[C@@H](c1ccc(-c2cc(C(=O)O)ccc2Cl)o1)c1oc(CN2CCN(c3ccc(OC)cc3)CC2)cc(=O)c1O | 4.99 | – | 30
12 | COc1ccc2c(c1)[C@H](CCNC(=O)C[C@@H](C1=C(O)[C@@]3(Oc4c(Cl)c(OC)cc(OC)c4C3=O)[C@H](C)CC1=O)c1ccc(O)c(OC)c1)C(=O)N2 | > 50 | – | –
